What was measured:
[1] = test system: Fly larvae I (Lucilia cuprina); test: Fly larvae contact/feeding assay; conditions: 48 h, read-out: Inhibition of fly larvae development
Experimental: Fly larvae I (Lucilia cuprina) were grown in medium spiked with declining concentrations of a test compound (dissolved in a DMSO-emulsifier-deionized water mixture). Inhibition of fly larvae development (%) was assessed after approximately 48 hours of continuous exposure. The vitality of used parasites was confirmed in negative control groups (i.e., an untreated control and a solvent control).

[2] = test system: Copepodids (juvenile sea lice stage of Lepeophtheirus salmonis); test: Juvenile sea lice contact assay; conditions: Lepeophtheirus salmonis, ~24 h, read-out: Sea lice inhibition (% of dead+damaged copepodids); for inhibition at 0.01 µM: 10 nM in seawater
Experimental: Copepodids (juvenile sea lice stage of Lepeophtheirus salmonis) were exposed to seawater spiked with declining concentrations of a test compound (dissolved in a DMSO sea-water mixture). Sea lice inhibition (% of dead+damaged copepodids) was assessed after approximately 24 hours of continuous exposure. The vitality of used parasites was confirmed in a negative (solvent) control group.

[3] = test system: Rhipicephalus microplus tick larvae; test: Tick larvae contact assay; conditions: ~3 min immersion, assessed ~24 h after, read-out: Tick inhibition (% of damage+dead ticks)
Experimental: Tick larvae (Rhipicephalus microplus) were immersed for approximately 3 minutes in declining concentrations of a test compound (dissolved in a DMSO-emulsifier-deionized water mixture). Tick inhibition (% of damage+dead ticks per test concentration) was assessed approximately 24 hours after contact exposure. The vitality of used parasites was confirmed in negative control groups (i.e. an untreated control and a solvent control).

[4] = test system: juvenile soft ticks (Ornithodoros moubata); test: Guinea pig - efficacy against argaside tick; assay type: in vivo
Outline: (§1)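 Guinea pigs given 5 mg/kg test compound orally (gavage) or s.c. in 10% DMF/emulsifier plus 90% water for injection, with local co-infestations of Ornithodoros moubata juveniles and Cimex lectularius at several post-treatment times. Engorged parasites scored dead/damaged about 24 h after collection; % inhibition versus pretreatment baseline by modified Schneider-Orelli formula.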

[5] = test system: bed bugs (Cimex lectularius); test: Guinea pig - efficacy against bed bug; assay type: in vivo
Outline: as §1

[6] = test system: Adult fleas (Ctenocephalides felis); test: Flea feeding assay; conditions: 1 ppm in blood, ~48 h membrane feeding, read-out: flea inhibition (% of dead+damaged fleas)
Experimental: Adult fleas (Ctenocephalides felis) of defined age were fed on artificial membranes with blood spiked with declining concentrations of a test compound (dissolved in a DMSO-emulsifier-blood mixture). After approximately 48 hours of continuous feeding, flea inhibition (i.e., % of dead+damaged fleas per test concentration) was assessed. The vitality of used parasites was confirmed in negative control groups (i.e., an untreated control and a solvent control).

Lepeophtheirus salmonis [7] = test: Salmon - in vivo efficacy against sea lice using gavage administration; conditions: po, 168 h, read-out: therapeutic efficacy against (pre-)adult sea lice (% reduction vs control), salmon, 5 mg/kg once by gavage, day -28 infestation, counted day 7
[8] = test system: Mobile stages of sea lice (pre-adults, adults of Lepeophtheirus salmonis); test: Adult sea lice contact assay; conditions: pre-adults/adults, assessed after ~1 and 24 h, read-out: EC50 (sea lice inhibition, dead+damaged)
Experimental: Mobile stages of sea lice (i.e., pre-adults, adults of Lepeophtheirus salmonis) were exposed to seawater spiked with declining concentrations of a test compound (dissolved in a PEG sea-water mixture). Sea lice inhibition (% of dead+damaged sea lice) was assessed after approximately 1 and 24 hours of continuous exposure in comparison to a negative (solvent) control group.

Lepeophtheirus salmonis [9] = test: Salmon - in vivo efficacy against sea lice using gavage administration; conditions: 5 mg/kg once by gavage, day -3 infestation, counted around day 28
Experimental: Salmon (Salmo solar) were treated once orally by gavage at a dose of 5 mg/kg bodyweight per fish (Day 0). As formulation DMSO 5%/fish oil 95% was used. Salmon of the negative control group received only the excipients of the formulation.
The fish were infested with Lepeophtheirus salmonis copepodids twice before treatment (i.e., around day −28 and day −3) and once after treatment (i.e., day 17).
Around day 28 (end of animal phase), fish were euthanized, and lice on each fish were classified ((pre-)adult or juvenile stage) and counted. […] Efficacy is expressed as a % reduction of sea lice in treated groups versus a control group, using the Abbott's formula.

[10] = 5 mg/kg subcutaneous, after 7 days
[11] = 5 mg/kg subcutaneous, after 10 days
[12] = 5 mg/kg subcutaneous, after 14 days
[13] = 5 mg/kg subcutaneous, after 17 days
[14] = 5 mg/kg, at least until Day 10, both administration routes (oral, subcutaneous)

Structure (SMILES)	inhibition at 100 ppm [1]	inhibition at 49 µM [3]	inhibition at 388 µM [3]	inhibition at 100 ppm [3]	activity against tick nymphs (≥80% inhibition, killed+damaged) ([4]; 5 mg/kg oral, Day 0)	activity against tick nymphs (≥80% inhibition, killed+damaged) ([4]; 5 mg/kg oral, after 7 days)	activity against tick nymphs (≥80% inhibition, killed+damaged) ([4]; 5 mg/kg subcutaneous, Day 0)	activity against tick nymphs (≥80% inhibition, killed+damaged) [4, 10]	activity against tick nymphs (≥80% inhibition, killed+damaged) [4, 11]	activity against bed bugs (≥80% inhibition, killed+damaged) ([5]; 5 mg/kg oral, Day 0)	activity against bed bugs (≥80% inhibition, killed+damaged) ([5]; 5 mg/kg oral, after 7 days)	activity against bed bugs (≥80% inhibition, killed+damaged) ([5]; 5 mg/kg subcutaneous, Day 0)	activity against bed bugs (≥80% inhibition, killed+damaged) [5, 10]	activity against bed bugs (≥80% inhibition, killed+damaged) [5, 11]	inhibition at 1 ppm [6]	inhibition in vivo at 5 mg/kg (Lepeophtheirus salmonis [7])	EC50 [8]	inhibition at 0.01 µM [2]	therapeutic efficacy against juvenile sea lice (% reduction vs control) (Lepeophtheirus salmonis [9])	also measured
CN(C(=O)c1cc(NC(=O)[C@H]2[C@H](c3cc(Cl)cc(Cl)c3)C2(Cl)Cl)ccc1Cl)c1ccc(F)cc1 [Compound 51]	80%	80%	80%	80%	immediate activity	activity	immediate activity	activity	activity	immediate activity	activity	immediate activity	activity	activity						inhibition at 0.1 µM ([2]; 100 nM in seawater): ≥ 80%; inhibition at 25 µM ([3]; 25 μM): ≥ 80%; activity against tick nymphs (≥80% inhibition, killed+damaged) [4, 12]: activity; activity against tick nymphs (≥80% inhibition, killed+damaged) [4, 13]: activity; duration of efficacy, subcutaneous compared with oral administration ([4]; 5 mg/kg, ticks and bed bugs): longer duration of efficacy; activity against bed bugs (≥80% inhibition, killed+damaged) [5, 12]: activity; activity against bed bugs (≥80% inhibition, killed+damaged) [5, 13]: activity
O=C(Nc1ncc(F)cc1F)c1cc(NC(=O)[C@H]2[C@H](c3ccc(Cl)c(Cl)c3)C2(Cl)Cl)ccc1Cl [Compound 86]	80%			80%	immediate activity	activity	immediate activity	activity	activity	immediate activity	activity	immediate activity	activity	activity	80%	100%	≤ 10 nM	100%	100%	activity against tick nymphs (≥80% inhibition, killed+damaged) ([4]; 5 mg/kg oral, after 10 days): activity; effective to control ticks [4, 14]: 100%; activity against bed bugs (≥80% inhibition, killed+damaged) ([5]; 5 mg/kg oral, after 10 days): activity; effective to control bed bugs [5, 14]: 100%
O=C(Nc1ncc(F)cc1F)c1cc(NC(=O)[C@H]2[C@H](c3ccc(F)c(Cl)c3)C2(Cl)Cl)ccc1Cl [Compound 89]		80%	80%	80%	immediate activity		immediate activity			immediate activity		immediate activity			80%	100%	≤ 10 nM	100%	100%	

Reference: patent US20240315993A1, “ANTIPARASITIC COMPOUNDS” (Intervet Inc., priority 2021, published 2024)
